Results reported in patent US20230278983A1, “INDOLE DERIVATIVES AND USES THEREOF FOR TREATING A CANCER” (Universite Claude Bernard Lyon 1, priority 2020, published 2023).

The compounds below were run on A549 and MDA-MB231 cells (assay: Immunoblotting of CK2-dependent substrate phosphorylation and apoptosis markers). Conditions: A549 24 hours, MDA-MB231 48 hours.
Assay type: cell-based, human
With `CCOC(=O)c1[nH]c2ccc(F)cc2c1-c1cn(CC2CCN(CCNS(=O)(=O)c3ccc(CC)cc3)CC2)nn1` [AB526, Ethyl 3-(1-((1-(2-((4-ethylphenyl)sulfonamido)ethyl)piperidin-4-yl)methyl)-1H-1,2,3-triazol-4-yl)-5-fluoro-1H-indole-2-carboxylate] the “CK2-dependent substrate phosphorylation and apoptosis (western blot)” value was “inhibit CK2-dependent substrate phosphorylation and induce apoptosis in different cancer cell lines”.

What follows are compounds tested against CK2 (Homo sapiens (Human), UniProt P68400) (assay: Radiometric CK2 kinase assay). Conditions: not given.
Sequence of CK2 (P68400 whole entry): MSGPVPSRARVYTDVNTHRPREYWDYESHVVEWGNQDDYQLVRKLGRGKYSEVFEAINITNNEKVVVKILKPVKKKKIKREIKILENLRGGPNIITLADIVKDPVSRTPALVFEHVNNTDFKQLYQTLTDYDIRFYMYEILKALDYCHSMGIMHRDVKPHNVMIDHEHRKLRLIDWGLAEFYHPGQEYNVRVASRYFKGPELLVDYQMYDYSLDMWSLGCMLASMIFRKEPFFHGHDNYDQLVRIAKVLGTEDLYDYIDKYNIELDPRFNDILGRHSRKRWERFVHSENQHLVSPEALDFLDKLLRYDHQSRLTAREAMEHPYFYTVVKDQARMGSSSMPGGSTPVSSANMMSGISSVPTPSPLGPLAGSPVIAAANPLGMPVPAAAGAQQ
Assay type: biochemical
For `CCOC(=O)c1[nH]c2ccc(F)cc2c1-c1cn(CC2CCN(CCNS(=O)(=O)c3ccc(CC)cc3)CC2)nn1` [AB526, Ethyl 3-(1-((1-(2-((4-ethylphenyl)sulfonamido)ethyl)piperidin-4-yl)methyl)-1H-1,2,3-triazol-4-yl)-5-fluoro-1H-indole-2-carboxylate], the IC50 was 300 nM.
`CC(=O)c1[nH]c2ccc(F)cc2c1-c1cn(CC2CCN(CCNS(=O)(=O)c3ccc(CC4CC4)cc3)CC2)nn1` [AB1317, N-(2-(4-((4-(2-acetyl-5-fluoro-1H-indol-3-yl)-1H-1,2,3-triazol-1-yl)methyl)piperidin-1-yl)ethyl)-4-(cyclopropylmethyl)benzenesulfonamide] was tested, and the IC50 was 310 nM.
`CC(=O)c1[nH]c2ccc(F)cc2c1-c1cn(C[C@H]2CCN(CCNS(=O)(=O)c3ccc(CC(C)C)cc3)C2)nn1` [AB1318] gave an IC50 of 300 nM.
Compound `CC(=O)c1[nH]c2ccc(F)cc2c1-c1cn(CC2CCN(CCNS(=O)(=O)c3ccc(-c4ccccc4C(F)(F)F)cc3)CC2)nn1` [AB1394, N-(2-(4-((4-(2-acetyl-5-fluoro-1H-indol-3-yl)-1H-1,2,3-triazol-1-yl)methyl)piperidin-1-yl)ethyl)-2′-(trifluoromethyl)-[1,1′-biphenyl]-4-sulfonamide] has an IC50 of 23 nM.
`CCC(=O)c1[nH]c2ccc(F)cc2c1-c1cn(CC2CCN(CCNS(=O)(=O)c3ccc(-c4c(O)cccc4F)cc3)CC2)nn1` [AB1415, 2′-fluoro-N-(2-(4-((4-(5-fluoro-2-propionyl-1H-indol-3-yl)-1H-1,2,3-triazol-1-yl)methyl)piperidin-1-yl)ethyl)-6′-hydroxy-[1,1′-biphenyl]-4-sulfonamide] showed an IC50 of 50 nM.
`CCC(=O)c1[nH]c2ccc(F)cc2c1-c1cn(CC2CCN(CCNS(=O)(=O)c3ccc(-c4c(OC)cccc4OC)cc3)CC2)nn1` [AB1416, N-(2-(4-((4-(5-fluoro-2-propionyl-1H-indol-3-yl)-1H-1,2,3-triazol-1-yl)methyl)piperidin-1-yl)ethyl)-2′,6′-dimethoxy-[1,1′-biphenyl]-4-sulfonamide] showed an IC50 of 100 nM.
For `CC(=O)c1[nH]c2ccc(F)cc2c1-c1cn(CC2CCN(CCNS(=O)(=O)c3ccc(-c4ccccc4O)cc3)CC2)nn1` [AB1450, N-(2-(4-((4-(2-acetyl-5-fluoro-1H-indol-3-yl)-1H-1,2,3-triazol-1-yl)methyl)piperidin-1-yl)ethyl)-2′-hydroxy-[1,1′-biphenyl]-4-sulfonamide], the IC50 was 49 nM.
With `CC(=O)c1[nH]c2ccc(F)cc2c1-c1cn(CC2CCN(CCNS(=O)(=O)c3ccc(-c4c(F)cccc4C(F)(F)F)cc3)CC2)nn1` [AB1451, N-(2-(4-((4-(2-acetyl-5-fluoro-1H-indol-3-yl)-1H-1,2,3-triazol-1-yl)methyl)piperidin-1-yl)ethyl)-2′-fluoro-6′-(trifluoromethyl)-[1,1′-biphenyl]-4-sulfonamide] the IC50 was 45 nM.
With `COc1cccc(OC)c1-c1ccc(S(=O)(=O)NCCN2CCC(Cn3cc(-c4c(C(C)=O)[nH]c5ccc(F)cc45)nn3)CC2)cc1F` [AB1454, N-(2-(4-((4-(2-acetyl-5-fluoro-1H-indol-3-yl)-1H-1,2,3-triazol-1-yl)methyl)piperidin-1-yl)ethyl)-2-fluoro-2′,6′-dimethoxy-[1,1′-biphenyl]-4-sulfonamide] the IC50 was 11 nM.

Same assay, conditions: Lineweaver-Burk analysis (n=2)
With `CCOC(=O)c1[nH]c2ccc(F)cc2c1-c1cn(CC2CCN(CCNS(=O)(=O)c3ccc(CC)cc3)CC2)nn1` [AB526, Ethyl 3-(1-((1-(2-((4-ethylphenyl)sulfonamido)ethyl)piperidin-4-yl)methyl)-1H-1,2,3-triazol-4-yl)-5-fluoro-1H-indole-2-carboxylate] the “Mechanism of CK2 inhibition with respect to ATP” value was “non-ATP competitive mechanism of CK2 inhibition” and the “Mechanism of inhibition towards CK2β” value was “mixed competitive inhibition towards CK2β”.

Same assay, conditions: compound at 0.10 μM; ATP 10 μM
`CC(=O)c1[nH]c2ccc(F)cc2c1-c1cn(CC2CCN(CCNS(=O)(=O)Cc3ccc(C(F)(F)F)cc3)CC2)nn1` [AB1315, N-(2-(4-((4-(2-acetyl-5-fluoro-1H-indol-3-yl)-1H-1,2,3-triazol-1-yl)methyl)piperidin-1-yl)ethyl)-1-(4-(trifluoromethyl)phenyl)methanesulfonamide] showed an inhibition at 0.1 µM of 27%.
`CC(=O)c1[nH]c2ccc(F)cc2c1-c1cn(C[C@@H]2CCN(CCNS(=O)(=O)c3ccc(CC(C)C)cc3)C2)nn1` [AB1319] showed an inhibition at 0.1 µM of 33%.
With `CC(=O)c1[nH]c2ccc(F)cc2c1-c1cn(C2CCN(CCNS(=O)(=O)c3ccc(CC(C)C)cc3)CC2)nn1` [AB1321, N-(2-(4-(4-(2-acetyl-5-fluoro-1H-indol-3-yl)-1H-1,2,3-triazol-1-yl)piperidin-1-yl)ethyl)-4-isobutylbenzenesulfonamide] the inhibition at 0.1 µM was 4%.
`CC(=O)c1[nH]c2ccc(F)cc2c1-c1cn(CC2CCN(CCNS(=O)(=O)N3CCC(c4cccnc4F)CC3)CC2)nn1` [AB1322, N-(2-(4-((4-(2-acetyl-5-fluoro-1H-indol-3-yl)-1H-1,2,3-triazol-1-yl)methyl)piperidin-1-yl)ethyl)-4-(2-fluoropyridin-3-yl)piperidine-1-sulfonamide] gave an inhibition at 0.1 µM of 10%.
`CC(=O)c1[nH]c2ccc(F)cc2c1-c1cn(CC2CCN(CCNS(=O)(=O)c3ccc(-c4ccccc4F)cc3)CC2)nn1` [AB1390, N-(2-(4-((4-(2-acetyl-5-fluoro-1H-indol-3-yl)-1H-1,2,3-triazol-1-yl)methyl)piperidin-1-yl)ethyl)-2′-fluoro-[1,1′-biphenyl]-4-sulfonamide] gave an inhibition at 0.1 µM of 36%.
Work on `CC(=O)c1[nH]c2ccc(F)cc2c1-c1cn(CC2CCN(CCNS(=O)(=O)c3ccc(-c4c(C#N)cccc4C(F)(F)F)cc3)CC2)nn1` [AB1393, N-(2-(4-((4-(2-acetyl-5-fluoro-1H-indol-3-yl)-1H-1,2,3-triazol-1-yl)methyl)piperidin-1-yl)ethyl)-2′-cyano-6′-(trifluoromethyl)-[1,1′-biphenyl]-4-sulfonamide] yielded an inhibition at 0.1 µM of 31%.
Work on `CC(=O)c1[nH]c2ccc(F)cc2c1-c1cn(C[C@H]2CCCN(CCNS(=O)(=O)c3ccc(CC(C)C)cc3)C2)nn1` [AB1403] yielded an inhibition at 0.1 µM of 9%.
Compound `CC(=O)c1[nH]c2ccc(F)cc2c1-c1cn(CC2CN(CCNS(=O)(=O)c3ccc(CC(C)C)cc3)C2)nn1` [AB1404, N-(2-(3-((4-(2-acetyl-5-fluoro-1H-indol-3-yl)-1H-1,2,3-triazol-1-yl)methyl)azetidin-1-yl)ethyl)-4-isobutylbenzenesulfonamide] has an inhibition at 0.1 µM of 20%.
Work on `CC(C)Cc1ccc(S(=O)(=O)NCCN2CCC(Cn3cc(-c4c(CO)[nH]c5ccc(F)cc45)nn3)CC2)cc1` [AB1405, N-(2-(4-((4-(5-fluoro-2-(hydroxymethyl)-1H-indol-3-yl)-1H-1,2,3-triazol-1-yl)methyl)piperidin-1-yl)ethyl)-4-isobutylbenzenesulfonamide] yielded an inhibition at 0.1 µM of 11%.
In the case of `O=S(=O)(NCCN1CCC(Cn2cc(-c3c(CO)[nH]c4ccc(F)cc34)nn2)CC1)c1ccc(-c2c(O)cccc2F)cc1` [AB1406, 2′-fluoro-N-(2-(4-((4-(5-fluoro-2-(hydroxymethyl)-1H-indol-3-yl)-1H-1,2,3-triazol-1-yl)methyl)piperidin-1-yl)ethyl)-6′-hydroxy-[1,1′-biphenyl]-4-sulfonamide], the inhibition at 0.1 µM is reported as 29%.
`CC(=O)c1[nH]c2ccc(F)cc2c1-c1cn(CC2CCN(CCNS(=O)(=O)c3ccc(-c4c(C)cccc4C#N)cc3)CC2)nn1` [AB1452, N-(2-(4-((4-(2-acetyl-5-fluoro-1H-indol-3-yl)-1H-1,2,3-triazol-1-yl)methyl)piperidin-1-yl)ethyl)-2′-cyano-6′-methyl-[1,1′-biphenyl]-4-sulfonamide] gave an inhibition at 0.1 µM of 36%.
Compound `CC(=O)c1[nH]c2ccc(F)cc2c1-c1cn(CC2CCN(CCNS(=O)(=O)c3ccc(-c4ccc(F)cc4Cl)cc3)CC2)nn1` [AB1453, N-(2-(4-((4-(2-acetyl-5-fluoro-1H-indol-3-yl)-1H-1,2,3-triazol-1-yl)methyl)piperidin-1-yl)ethyl)-2′-chloro-4′-fluoro-[1,1′-biphenyl]-4-sulfonamide] has an inhibition at 0.1 µM of 40%.

Same assay, conditions: inhibition of CK2 activity; ATP 10 μM
Work on `CC(=O)c1[nH]c2ccc(F)cc2c1-c1cn(CC2CCN(CCNS(=O)(=O)N3CCC(c4c(F)cccc4F)CC3)CC2)nn1` [AB1316, N-(2-(4-((4-(2-acetyl-5-fluoro-1H-indol-3-yl)-1H-1,2,3-triazol-1-yl)methyl)piperidin-1-yl)ethyl)-4-(2,6-difluorophenyl)piperidine-1-sulfonamide] yielded an IC50 of 280 nM.
With `CC(C)COC(=O)c1[nH]c2ccc(F)cc2c1-c1cn(CC2CCN(CCNS(=O)(=O)c3ccc(-c4c(O)cccc4F)cc3)CC2)nn1` [AB1402, isobutyl 5-fluoro-3-(1-((1-(2-((2′-fluoro-6′-hydroxy-[1,1′-biphenyl])-4-sulfonamido)ethyl)piperidin-4-yl)methyl)-1H-1,2,3-triazol-4-yl)-1H-indole-2-carboxylate] the IC50 was 45 nM.
Compound `CCC(=O)c1[nH]c2ccc(F)cc2c1-c1cn(CC2CCN(CCNS(=O)(=O)Cc3ccc(C(F)(F)F)cc3)CC2)nn1` [AB1417, N-(2-(4-((4-(5-fluoro-2-propionyl-1H-indol-3-yl)-1H-1,2,3-triazol-1-yl)methyl)piperidin-1-yl)ethyl)-1-(4-(trifluoromethyl)phenyl)methanesulfonamide] has an IC50 of 120 nM.

The compounds below were run on MDA-MB231 cells (assay: Cell death, IncuCyte propidium iodide live-cell imaging). Conditions: 48 hours, increasing concentrations.
Assay type: cell-based, human
For `CCOC(=O)c1[nH]c2ccc(F)cc2c1-c1cn(CC2CCN(CCNS(=O)(=O)c3ccc(CC)cc3)CC2)nn1` [AB526, Ethyl 3-(1-((1-(2-((4-ethylphenyl)sulfonamido)ethyl)piperidin-4-yl)methyl)-1H-1,2,3-triazol-4-yl)-5-fluoro-1H-indole-2-carboxylate], the “Sensitivity to compound-mediated cell death, MDA-MB231 versus normal MCF10A” value was “much more sensitive”.

Each compound was assayed on 786-O and RPTEC cells (assay: Immunoblotting of CK2-dependent substrate phosphorylation and apoptosis markers). Conditions: 48 hours or 24 hours, increasing concentrations.
Assay type: cell-based
`CCOC(=O)c1[nH]c2ccc(F)cc2c1-c1cn(CC2CCN(CCNS(=O)(=O)c3ccc(CC)cc3)CC2)nn1` [AB526, Ethyl 3-(1-((1-(2-((4-ethylphenyl)sulfonamido)ethyl)piperidin-4-yl)methyl)-1H-1,2,3-triazol-4-yl)-5-fluoro-1H-indole-2-carboxylate] was tested, and the “CK2-dependent substrate phosphorylation and apoptosis (western blot)” value was “inhibit CK2-dependent substrate phosphorylation in cells and induce apoptosis”.
